Source: patent US20240400553A1, “AMINE BASED MATRIPTASE 2 INHIBITORS AND USES THEREOF” (Disc Medicine, Inc., priority 2023, published 2024)
Read-outs that look alike come from different tables or passages of the source.

Target: T1, Human Recombinant Matriptase 2 (Homo sapiens, UniProt Q8IU80)
T1 construct: made in house
T1 sequence (Q8IU80 1-811): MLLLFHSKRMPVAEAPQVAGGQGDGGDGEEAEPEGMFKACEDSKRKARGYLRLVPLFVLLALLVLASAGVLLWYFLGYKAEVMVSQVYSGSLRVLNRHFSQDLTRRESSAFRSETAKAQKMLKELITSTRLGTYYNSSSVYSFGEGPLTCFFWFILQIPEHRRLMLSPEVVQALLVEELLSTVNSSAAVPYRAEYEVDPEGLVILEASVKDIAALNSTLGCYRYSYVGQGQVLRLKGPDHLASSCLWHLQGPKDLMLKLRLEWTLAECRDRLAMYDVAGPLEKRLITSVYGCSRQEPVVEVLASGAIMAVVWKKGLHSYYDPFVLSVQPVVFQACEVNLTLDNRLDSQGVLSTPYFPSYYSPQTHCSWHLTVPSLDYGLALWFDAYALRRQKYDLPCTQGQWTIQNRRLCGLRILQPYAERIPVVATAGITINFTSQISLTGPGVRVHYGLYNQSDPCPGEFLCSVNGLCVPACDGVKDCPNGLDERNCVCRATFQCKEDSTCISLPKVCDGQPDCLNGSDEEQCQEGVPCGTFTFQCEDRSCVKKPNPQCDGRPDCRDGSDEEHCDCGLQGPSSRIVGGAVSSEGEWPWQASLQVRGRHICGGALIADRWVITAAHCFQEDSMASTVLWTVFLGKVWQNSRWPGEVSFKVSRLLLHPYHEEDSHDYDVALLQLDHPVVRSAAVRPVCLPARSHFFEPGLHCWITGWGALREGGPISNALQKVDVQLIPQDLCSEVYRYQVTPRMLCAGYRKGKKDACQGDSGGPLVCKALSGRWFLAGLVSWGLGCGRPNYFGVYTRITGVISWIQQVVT
Assay: Matriptase 2 inhibition, fluorescence based assay (Method I)
Type: biochemical
Details: Table A, read-out: Mat-2 Ki
Summary of the method: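 Fluorogenic readout (Ex 360/Em 480 nm) taken 60 min after adding 62 μM Boc-Gln-Ala-Arg-AMC, following 30-min enzyme–compound preincubation at 25 °C. Conditions: 3.5 nM in-house enzyme, pH 7.5 Tris/NaCl/gelatin buffer, 1% DMSO; percent inhibition versus concentration fitted by variable-slope sigmoidal regression.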

[1] = Ki of Matriptase-2 given as class symbols

| SMILES | Ki [1] [nM] | Ki (Ki of Matriptase-2, class symbols) [nM] |
| --- | --- | --- |
| NCc1ccc2cc(C(=O)O)n(Cc3cc(NS(=O)(=O)N4CCC(C(F)(F)F)CC4)cc4ccccc34)c2c1 [Compound 393, 6-(aminomethyl)-1-{[3-({[4-(trifluoromethyl)-piperidin-1-yl]sulfonyl}-amino)naphthalen-1-yl]-methyl}-1H-indole-2-carboxylic acid] | 500 to 3000 | – |
| COCCN1CCN(C(=O)Nc2cc(Cn3c(C(=O)O)cc4ccc(CN)cc43)c3ccccc3c2)CC1 [Compound 394, 6-(aminomethyl)-1-((3-(4-(2-methoxyethyl)piperazine-1-carboxamido)naphthalen-1-yl)methyl)-1H-indole-2-carboxylic acid] | 500 to 3000 | – |
| CC(C)(C)S(=O)(=O)N1CCC(CNC(=O)Nc2cc(Cn3c(C(=O)O)cc4ccc(CN)cc43)c3ccccc3c2)CC1 [Compound 396, 6-(aminomethyl)-1-({3-[({[1-(2-methylpropane-2-sulfonyl)piperidin-4-yl]methyl}carbamoyl)-amino]naphthalen-1-yl}-methyl)-1H-indole-2-carboxylic acid] | 100 to 500 | – |

Second part, the molecule after the results:

| Ki [1] [nM] | Ki (Ki of Matriptase-2, class symbols) [nM] | SMILES |
| --- | --- | --- |
| 100 to 500 | – | CS(=O)(=O)N1CCC(CNC(=O)Nc2cc(Cn3c(C(=O)O)cc4ccc(CN)cc43)c3ccccc3c2)CC1 [Compound 397, 6-(aminomethyl)-1-{[3-({[(1-methanesulfonyl-piperidin-4-yl)methyl]-carbamoyl}amino)naph-thalen-1-yl]methyl}-1H-indole-2-carboxylic acid] |
| – | 100 to 500 | NCc1ccc2cc(-c3nnn[nH]3)n(Cc3cc(NS(=O)(=O)CC[C@@H]4CCCN4)cc4ccccc34)c2c1 [Compound 399, (S)—N-(4-((6-(aminomethyl)-2-(1H-tetrazol-5-yl)-1H-indol-1-yl)methyl)naphthalen-2-yl)-2-(pyrrolidin-2-yl) ethane-1-sulfonamide] |
